Results taken from patent publication EP1541694A1, “Methods of identifying, selecting and/or characterizing compounds which modulate the activity of a Src family kinase” (Sirenade Pharmaceuticals AG, priority 2003, dated 2005).

Experiments:
[1] = system: Src-TQ/YF expressing cell line ZM170.21; test: CTB and ATP cell viability/metabolic activity assays, suppression of tet-induced reduction; type: cell-based, human; conditions: ZM170.21 (Src-TQ/YF), 5µM PP2 + 10µM PP1-Chr., 40µM D5, 1µM 17-AAG, 1µM radicicol
Description: To proof the concept of the assay platform according to the invention in a quantitative manner with a highly parallel readout, the following cell viability / metabolic activity assays from Promega according to the manufacturer's protocols: "CellTiter 96 AQueous One Solution Cell Proliferation Assay (MTS)", CellTiter-BlueTM Cell Viability Assay (CTB), and the ATP-status assay "CellTiter-Glo Luminescent Cell Viability Assay" (ATP) were used to obtain quantitative values reflecting (aspects of) the phenotype changes. The cells were seeded into white-walled/ clear bottom 96-well plates ["MICROTEST" by Falcon, cat.no. 353947] for MTS and ATP assays and in black-walled/ clear bottom 96-well plates ["MICROTEST" by Falcon, cat.no. 353948] for the CTB assay at the appropriate densities. Tet and/or compound addition (where applicable) was started the next day. Measurements were taken 1,2 and 3 days later using the Wallac Victor^2TM multilabel plate reader (Perkin Elmer). Absorbance was measured at 490nm (MTS). Luminescence mode was used for the ATP assay. For CTB fluorescence excitation wavelength was 550nm (filter: 550(20)nm), emission wavelength was 590 nm (filter: 590(20)nm). Indicated are the means of sixplicate determinations (from 6 independent wells) in the absence of tet (mean(-tet)) and in the presence of tet (mean(+tet)), followed by the respective corresponding standard deviations SD(-tet) and SD(+tet). The cell viability/ metabolic activity upon tet-induction in relation to the cell viability/ metabolic activity without tet ("+/tet(means") is calculated from the quotient of the means of the measured cell viability/ metabolic activity signals from i) cells incubated without tet and ii) cells incubated with tet. […] Furthermore indicated are the corresponding Z' values. In the present context: Z'=1-(3(SD(+tet)+SD(-tet))/ |mean(+tet)-mean(-tet)|. […] SD=0) (Zhang et al., 1999). Z'≥0 is required for an assay useful for a screening approach; a Z'≥0.5 is considered excellent for an assay with regard to high throughput screening. […] Three more parameters reflecting the effects of compounds on cell viability/metabolic activity in these assays are indicated in Tab.3 and Tab.4: Toxicity reflects the nonspecific (i.e. irrespective of tet-induced Src/ Src mutant expression) effects of a compound on the viability/ metabolic activity of the cells. It is calculated as toxicity=1-mean(-tet, compound)/mean(-tet,(DMSO)). […] The suppression value quantifies the potency of a compound with respect to suppression of the tet-induced change in cell viability / metabolic activity. Usually, tet-induction reduces cell viability / metabolic activity due to Src activity and addition of a Src inhibitory compound mitigates this reduction. A suppression of 100% means that the compound totally suppresses the tet-induced decrease in cell viability / metabolic activity (as in the absence of tet). The following formula is employed: Suppres-sion=([…]). Finally, the corresponding Z' value is calculated as follows: Z'(suppression)=1- 3([…]). The factor Qtox corrects the means and SD determined in the absence of a compound for the (nonspecific) toxicity effect of the respective compound, which would otherwise overlay and obscure the specific suppression, if toxicity is not neglectable. […] On each day 4 measurements are taken (1, 2, 3 and 4 h after the addition of the CTB assay reagents). […]

ZM75.7 (Src) = test: MTS and ATP cell viability/metabolic activity assays, suppression of tet-induced reduction; type: cell-based, human; conditions: 3 days after tet/compound addition
Description: To proof the concept of the assay platform according to the invention in a quantitative manner with a highly parallel readout, the following cell viability / metabolic activity assays from Promega according to the manufacturer's protocols: "CellTiter 96 AQueous One Solution Cell Proliferation Assay (MTS)", CellTiter-Blue™ Cell Viability Assay (CTB), and the ATP-status assay "CellTiter-Glo Luminescent Cell Viability Assay" (ATP) were used to obtain quantitative values reflecting (aspects of) the phenotype changes.
The cells were seeded into white-walled/ clear bottom 96-well plates ["MICROTEST" by Falcon, cat.no. […] Measurements were taken 1,2 and 3 days later using the Wallac Victor^2™ multilabel plate reader (Perkin Elmer). Absorbance was measured at 490nm (MTS). Luminescence mode was used for the ATP assay. For CTB fluorescence excitation wavelength was 550nm (filter: 550(20)nm), emission wavelength was 590 nm (filter: 590(20)nm). […]
Three more parameters reflecting the effects of compounds on cell viability/metabolic activity in these assays are indicated in Tab.3 and Tab.4: Toxicity reflects the nonspecific (i.e. irrespective of tet-induced Src/ Src mutant expression) effects of a compound on the viability/ metabolic activity of the cells. It is calculated as toxicity=1-mean(-tet, compound)/mean(-tet,(DMSO)). […]

CC(C)(C)n1nc(-c2ccc(Cl)cc2)c2c(N)ncnc21 [PP2]
suppression of the +/-tet(means)-values [1]: did not significantly suppress
suppression effects on ZM75.7 (ZM75.7 (Src)): detected
